Assay [1] deals with Endothelial Cells Isolated from the Vein of Umbilical Cords. Briefly: Inhibition of endothelial cell proliferation by DNA synthesis reinitiation (b-Fgf, tritiated thymidine). The assay is classed as cell-based. Conditions: b-Fgf-stimulated tritiated thymidine incorporation, 24 h at 37° C., serum free medium, IC50 determined graphically. The method, then:
The anti-angiogenic activity of the compounds according to the invention may also be measured by means of their capacity to inhibit the proliferation of endothelial cells. This activity is determined in Example 13 of the present patent application.
b) Measurement of the Inhibition of the Proliferation in Endothelial Cells Isolated from the Vein of Umbilical Cords (Prepared at the Laboratory) by DNA Synthesis Reinitiation
The cells are seeded in complemented SFM medium (Gibco). When the cells reach the confluence, the growth is stopped by 2 washes in serum free medium and handing-over in serum free medium for 24 h. After trypsination, they are seeded in 48 wells plates: 50.000 cells per well in 500 μl.
The reinitiation of DNA synthesis is performed 6 hours after, in presence of 50 μg/ml b-Fgf by well with increasing amounts of inhibitor to be tested in the serum free medium and containing the tritiated thymidine (b-Fgf is prepared at the laboratory).
The cells are incubated 24 h at 37° C. and the radioactivity is measured with a Wallac counter. Each test is performed in duplicate and the result is the average of the counted number of cpms. The curve showing measured radioactivity function to increasing amount of inhibitors allows to determine graphically the value of IC50.

Assay [2] addresses T1, Human MetAP-2 (Homo sapiens, UniProt P50579).
T1 construct: made in house
Briefly: Inhibition of human MetAP-2 (recombinant enzyme, Met-Ala-Ser substrate). The assay is classed as biochemical. Conditions: recombinant MetAP-2, substrate Met-Ala-Ser 1 mM, 37° C., Hepes pH 7.4, 0.5 mM CoCl2. The method, then:
By way of example, the biological activity of the compounds is evaluated by measuring their inhibitory activity on methionine aminopeptidase MetAP-2 (Li, X., Chang, Y-H. Biochem. Biophys. Res. Comm. 1996, 227, 152).
The biological activity is characterized in this system by determining the concentration of compound required to inhibit 50% of the enzymatic activity (IC50). The test protocol used is described in Example 13 of the present patent application.
a) Measurement of the Inhibition of Human MetAP-2
Recombinant MetAP-2 is obtained and purified according to the method described by Li and Chang (Li, X.; Chang, Y-H. Biochem. Biophys. Res. Comm. 1996, 227, 152).
The tests are carried out in buffer A (Hepes buffer, 10 mM, pH 7.4, 0.5 mM CoCl2 containing 10% glycerol) using the peptide Met-Ala-Ser as substrate (Km=0.7 mM).
a. The enzymatic activity is measured as follows: the substrate solution is added to a suitable amount of enzyme such that the final concentration is 1 mM, and the mixture is incubated at 37° C. for 10-30 minutes. The reaction is quenched by adding 100 mM EDTA solution or by heating in a boiling water bath for two minutes.
b. The N-terminal methionine released is quantified by measuring the absorbance at 450 nm (A450) by incubating for 30-60 minutes at 37° C. with the following coloured reagent: buffer B (Hepes buffer, 10 mM, pH 7.4) (Ben-Bassat A.; Bauer K.: Chang S. Y. et al., J. Bacteriol. 1987, 169, 751-757), containing 70 μg/mL of amino acid oxidase, 10 μg/mL of horseradish peroxidase and 1 mM of o-dianisidine. The activities are expressed as mmol of methionine produced, using the conversion factor of 1 mmol of methionine/mL=8.6A450
Determination of the IC50
The IC50 values are determined by incubating the enzyme and its substrate (using the experimental conditions described above) with increasing concentrations of inhibitor.
The control is 5-methoxy-4-[2-methyl-3-(3-methylbut-2-enyl)oxiranyl]-1-oxaspiro[2.5]octan-6-yl 4-methoxycinnamate described in the publication by Han et al., Bioorganic & Medicinal Chemistry Letters, 2000, 10, 39-43.

The term IC50 denotes the concentration needed to halve the response being measured.

T1 sequence (P50579 whole entry): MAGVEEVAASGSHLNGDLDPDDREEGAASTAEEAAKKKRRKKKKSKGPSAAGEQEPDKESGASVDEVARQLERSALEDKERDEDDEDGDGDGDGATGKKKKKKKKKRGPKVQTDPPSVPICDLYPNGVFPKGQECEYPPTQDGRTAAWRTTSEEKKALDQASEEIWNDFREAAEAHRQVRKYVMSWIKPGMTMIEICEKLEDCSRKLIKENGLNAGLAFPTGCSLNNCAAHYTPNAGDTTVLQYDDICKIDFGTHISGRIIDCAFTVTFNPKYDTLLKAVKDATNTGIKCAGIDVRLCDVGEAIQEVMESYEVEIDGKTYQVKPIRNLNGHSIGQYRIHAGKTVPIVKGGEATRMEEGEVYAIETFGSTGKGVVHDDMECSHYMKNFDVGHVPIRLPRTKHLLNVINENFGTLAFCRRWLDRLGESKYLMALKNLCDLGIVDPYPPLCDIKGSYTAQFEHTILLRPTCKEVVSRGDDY

Regarding `COc1ccc(C=CC(=O)OC2CCC3(CO3)C(C3(C)OC3CC=C(C)C)C2OC)cc1` (centres unmarked) [Control, 5-methoxy-4-[2-methyl-3-(3-methylbut-2-enyl)oxiranyl]-1-oxaspiro[2.5]octan-6-yl 4-methoxycinnamate], the IC50 in assay [1] was 10 nM; in assay [2] it was 35 nM.

As for `COc1ccc(/C=C/C(=O)O[C@@H]2CC[C@]3(CO3)[C@@H](/C(C)=C/CCC(C)C)[C@@H]2OC)cc1` [Example 2], the figures for the IC50 in assay [1] (Endothelial cell) and in assay [2] were 1 nM and 15 nM, respectively. On to `CO[C@@H]1[C@H](OC(=O)/C=C/C=C/C=C/C=C/C(=O)O)CC[C@]2(CO2)[C@H]1[C@@]1(C)O[C@@H]1CC=C(C)C` [Fumagillin], for which the 50% inhibitory concentration (IC50) in assay [2] amounted to 10 nM.

The record behind these values is patent US6803382B2, “Angiogenesis inhibitors and pharmaceutical and cosmetic use thereof” (Galderma Research & Development, S.N.C., priority 2001, dated 2004).
